# Results published in patent EP4635958A1, “PYRIMIDINE-CONTAINING POLYCYCLIC DERIVATIVE INHIBITOR, AND PREPARATION METHOD THEREFOR AND USE THEREOF” (Shanghai Hansoh Biomedical Co., Ltd., priority 2022, dated 2024).
# Like-named read-outs stand apart in the source and are kept apart here.
# Legend:
# [1] = Pharmacokinetic determination in mice (IV and PO, plasma, LCMS/MS); format: in vivo, Balb/c mice; conditions: for F: PO 30 mg/kg vs IV 1 mg/kg; for AUC(0-inf) / C0 / clearance / half-life / Cmax / Tmax: mouse, in vivo; for C0: read-out: C0; for clearance: read-out: CL; for half-life: read-out: T1/2 (converted)
# In short: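 Male Balb/c mice, fasted overnight (n=3 per route): PO 30 mg/kg in 10% Captisol/50 mM citrate pH 5.0, or IV 1 mg/kg in 5% DMSO/10% Solutol HS15/85% PBS. Orbital blood sampled predose to 24 h; EDTA plasma analysed by LC-MS/MS.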
# [2] = Plasma stability test, dog plasma; format: in vitro ADME; conditions: for half-life: read-out: t1/2 (converted);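 on all read-outs here: parent compound left in dog plasma quantified by LC-MS with positive electrospray ionization, selected reaction monitoring and an internal standard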
# Protocol: (§1) Liquid chromatography-mass spectrometer, centrifuge, vortexer, pipette, continuous dispenser, 96-well plate, 50% methanol aqueous solution, acetonitrile solution containing internal standard, blank matrix (plasma of rat, dog, or human), Propantheline (propantheline bromide), Mevinolin (lovastatin), and test compound.
# (§2) After whole blood was collected from animals or humans, it was placed in a test tube containing an anticoagulant and centrifuged at 3500 rpm for 10 min to collect the upper pale yellow plasma.
# (§3) The compound was weighed and the stock solution was formulated with DMSO and the working solution was formulated with 100 mM phosphate buffer.
# (§4) • Instrument: API4000 liquid chromatography-mass spectrometer, AB Company, USA; • the ion source was electrospray ionization source (ESI); • drying gas (N2) temperature was 500°C; • electrospray voltage was 5500V; • the detection method was positive ion detection; • the scanning method was selected reaction monitoring (MRM); • the scanning time was 0.1s.
# [3] = Plasma stability test, rat plasma; conditions: for Remaining rate (%) 0 min / Remaining rate (%) 15 min / Remaining rate (%) 30 min / Remaining rate (%) 60 min / Remaining rate (%) 120 min: Rat plasma, 37°C; for half-life: rat, plasma
# Description: The purpose of this experiment was to detect the stability of the example compounds in plasma of mouse, rat, dog and human.
# as §1, §2, §3
# 2.36 mg of propantheline bromide was weighed and diluted with 1 mL of DMSO into a 10 mM stock solution; 10 µL of 10 mM stock solution was pipetted into 1 mL of 100 mM phosphate buffer to achieve a final concentration of 100 µM.
# 4.05 mg of lovastatin was weighed and diluted with 1 mL of DMSO into a 10 mM stock solution; 10 µL of 10 mM stock solution was pipetted into 1 mL of 100 mM phosphate buffer to achieve a final concentration of 100 µM.
# • 1) In a 96-well plate, 285 µL of plasma and 15 µL of 10 µM compound (test compound) were added in sequence and incubated at 37°C. • 2) 40 µL was taken at 0, 15, 30, 60, 90, and 120 min (the sampling point can be fine-tuned) and 160 µL of acetonitrile stop solution containing internal standard was add. • 3) After centrifugation (3500 rpm, 10 min), 50 µL of supernatant was taken, and 50 µL of DDH2O added for dilution and then the obtained mixture was injected into LC-MS/MS.
# • Instruments: Shimadzu LC-20 AD • Chromatographic column: Phenomenex Gemiu ® C18 (50*4.6 mm, 5 µm particle size); • mobile phase: A: Acetonitrile, B: 0.1% formic acid solution 0-8 min: 5% A→95% A, 2.0-2.1 min: 90%A→5% A; Flow rate: 0.8 mL/min; Run time: 5.0 min; Injection volume: 5 µL.
# as §4
# [4] = Plasma stability test, mouse plasma; format: in vitro ADME; conditions: for half-life: read-out: t1/2 (converted);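 on all read-outs here: test compound quantified by LC-MS using positive-mode electrospray ionization and MRM scanning, with an internal standard added in acetonitrile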
# Protocol: as §1, §2, §3, §4
# [5] = Plasma stability test, human plasma; format: in vitro ADME; conditions: for half-life: read-out: t1/2 (converted);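 on all read-outs here: test compound incubated in human plasma, quantified by LC-MS/MS (positive-ion ESI, MRM) against an internal standard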
# Protocol: as §1, §2, §3, §4
# [6] = test system: GP2D; assay: Inhibition of proliferation of KRAS G12D mutant tumor cell line GP2D (CellTiter-Glo); conditions: Homo sapiens, GP2d, 72 h, read-out: GP2D IC50
# [7] = Balb/c mice, intravenously (IV), 1 mg/kg, plasma, read-out: AUCo-∞
# [8] = Balb/c mice, intravenously (IV), 1 mg/kg, plasma
# [9] = PO, 30 mg/kg, male Balb/c mice, overnight fasting, plasma, read-out: AUC0-∞
# [10] = PO, 30 mg/kg, male Balb/c mice, overnight fasting, plasma, read-out: Cmax
# [11] = PO, 30 mg/kg, male Balb/c mice, overnight fasting, plasma
# [12] = PO, 30 mg/kg, male Balb/c mice, overnight fasting, plasma, read-out: Tmax
structure (smiles),measurement,setting,value
"C#Cc1c(F)ccc2cc(O)cc(-c3nc4c5c(nc(OCC6(CN7CCC(=C(F)F)CC7)CC6)nc5c3F)N3C[C@H]5CC[C@H](N5)[C@H]3CO4)c12 [Example 1-1, 4-((5aS,6S,9R)-12-((1-((4-(difluoromethylene)piperidin-1-yl)methyl)cyclopropyl)methoxy)-1-fluoro-5a,6,7,8,9,10-hexahydro-5H-4-oxa-3,10a,11,13,14-pentaaza-6,9-methylenenaphtho[1,8-ab]heptalene-2-yl)-5-ethynyl-6-fluoronaphthalen-2-ol]",F,[1]; male Balb/c mice,12.1%
same,AUC(0-inf),[1]; [7],583 ng·h/mL
same,C0,[1]; [8],886 ng/mL
same,clearance,[1]; [8],28.6 mL/min/kg
same,half-life,[1]; [8],8.6 h
same,AUC(0-inf),[1]; [9],2110 ng·h/mL
same,Cmax,[1]; [10],227 ng/mL
same,half-life,[1]; [11],9.1 h
same,Tmax,[1]; [12],0.5 h
same,Remaining rate (%) 0 min,"[2]; Dog plasma, 37°C, 0 min",100.00%
same,Remaining rate (%) 15 min,"[2]; Dog plasma, 37°C, 15 min",100.25%
same,Remaining rate (%) 30 min,"[2]; Dog plasma, 37°C, 30 min",105.57%
same,Remaining rate (%) 60 min,"[2]; Dog plasma, 37°C, 60 min",104.40%
same,Remaining rate (%) 120 min,"[2]; Dog plasma, 37°C, 120 min",93.99%
same,half-life,"[2]; Dog plasma, 37°C",48.9 h
same,Remaining rate (%) 0 min,[3],100.00%
same,Remaining rate (%) 15 min,[3],95.76%
same,Remaining rate (%) 30 min,[3],92.93%
same,Remaining rate (%) 60 min,[3],88.38%
same,Remaining rate (%) 120 min,[3],80.60%
same,half-life,[3],13.5 h
same,Remaining rate (%) 0 min,"[4]; Mouse plasma, 37°C, 0 min",100.00%
same,Remaining rate (%) 15 min,"[4]; Mouse plasma, 37°C, 15 min",94.74%
same,Remaining rate (%) 30 min,"[4]; Mouse plasma, 37°C, 30 min",96.27%
same,Remaining rate (%) 60 min,"[4]; Mouse plasma, 37°C, 60 min",96.21%
same,Remaining rate (%) 120 min,"[4]; Mouse plasma, 37°C, 120 min",98.50%
same,half-life,"[4]; Mouse plasma, 37°C",146 h
same,Remaining rate (%) 0 min,"[5]; Human plasma, 37°C, 0 min",100.00%
same,Remaining rate (%) 15 min,"[5]; Human plasma, 37°C, 15 min",100.68%
same,Remaining rate (%) 30 min,"[5]; Human plasma, 37°C, 30 min",101.72%
same,Remaining rate (%) 60 min,"[5]; Human plasma, 37°C, 60 min",97.62%
same,Remaining rate (%) 120 min,"[5]; Human plasma, 37°C, 120 min",88.35%
same,half-life,"[5]; Human plasma, 37°C",31.4 h
same,IC50,[6],1.2 nM
"[2H]C([2H])([2H])[C@@H]1Oc2nc(-c3cc(O)cc4ccc(F)c(C#C)c34)c(F)c3nc(OCC4(CN5CCC(=C(F)F)CC5)CC4)nc(c23)N2C[C@H]3CC[C@H](N3)[C@@H]12 [Example 161, 4-((5S,5aS,6S,9R)-12-((1-((4-(difluoromethylene)piperidin-1-yl)methyl)cyclopropyl)methoxy)-1-fluoro-5-(methyl-d3)-5a,6,7,8,9,10-hexahydro-5H-4-oxa-3,10a,11,13,14-pentaaza-6,9-methylnaphtho[1,8-ab]hept-2-yl)-5-ethynyl-6-fluoronaphthalen-2-ol]",AUC(0-inf),"[1]; po, 30 mg/kg",1550 ng·h/mL
same,Cmax,"[1]; po, 30 mg/kg",221 ng/mL
same,Tmax,"[1]; po, 30 mg/kg",2 h
same,half-life,"[2]; Dog plasma, 37°C",31.4 h
same,Remaining rate (%) 0 min,"[2]; dog, plasma, 0 h",100.00%
same,Remaining rate (%) 15 min,"[2]; dog, plasma, 0.25 h",91.74%
same,Remaining rate (%) 30 min,"[2]; dog, plasma, 0.5 h",92.09%
same,Remaining rate (%) 60 min,"[2]; dog, plasma, 1 h",90.97%
same,Remaining rate (%) 120 min,"[2]; dog, plasma, 2 h",88.28%
same,half-life,[3],29.4 h
same,half-life,"[4]; Mouse plasma, 37°C",229 h
same,Remaining rate (%) 0 min,"[4]; mouse, plasma, 0 h",100.00%
same,Remaining rate (%) 15 min,"[4]; mouse, plasma, 0.25 h",101.36%
same,Remaining rate (%) 30 min,"[4]; mouse, plasma, 0.5 h",101.38%
same,Remaining rate (%) 60 min,"[4]; mouse, plasma, 1 h",98.35%
same,Remaining rate (%) 120 min,"[4]; mouse, plasma, 2 h",101.35%
same,half-life,"[5]; Human plasma, 37°C",142 h
same,Remaining rate (%) 0 min,"[5]; human, plasma, 0 h",100.00%
same,Remaining rate (%) 15 min,"[5]; human, plasma, 0.25 h",93.48%
same,Remaining rate (%) 30 min,"[5]; human, plasma, 0.5 h",92.44%
same,Remaining rate (%) 60 min,"[5]; human, plasma, 1 h",95.19%
same,Remaining rate (%) 120 min,"[5]; human, plasma, 2 h",97.25%
same,IC50,[6],0.24 nM
"C#Cc1c(F)ccc2cc(O)cc(-c3nc4c5c(nc(OCC6(CN7CCC(=C(F)F)CC7)CC6)nc5c3F)N3C[C@H]5CC[C@H](N5)[C@H]3[C@H](C)O4)c12 [Example 19-1, 4-((5S,5aS,6S,9R)-12-((1-((4-(difluoromethylene)piperidin-1-yl)methyl)cyclopropyl)methoxy)-1-fluoro-5-methyl-5a,6,7,8,9,10-hexahydro-5H-4-oxa-3,10a,11,13,14-pentaaza-6,9-methylnaphtho[1,8-ab]hept-2-yl)-5-ethynyl-6-fluoronaphthalene-2-ol]",F,[1]; male Balb/c mice,11.2%
same,AUC(0-inf),[1]; [7],476 ng·h/mL
same,C0,[1]; [8],904 ng/mL
same,clearance,[1]; [8],35 mL/min/kg
same,half-life,[1]; [8],11.2 h
same,AUC(0-inf),[1]; [9],1610 ng·h/mL
same,Cmax,[1]; [10],316 ng/mL
same,half-life,[1]; [11],7.2 h
same,Tmax,[1]; [12],1 h
same,Remaining rate (%) 0 min,"[2]; Dog plasma, 37°C, 0 min",100.00%
same,Remaining rate (%) 15 min,"[2]; Dog plasma, 37°C, 15 min",95.89%
same,Remaining rate (%) 30 min,"[2]; Dog plasma, 37°C, 30 min",101.96%
same,Remaining rate (%) 60 min,"[2]; Dog plasma, 37°C, 60 min",101.84%
same,Remaining rate (%) 120 min,"[2]; Dog plasma, 37°C, 120 min",94.59%
same,half-life,"[2]; Dog plasma, 37°C",75.5 h
same,Remaining rate (%) 0 min,[3],100.00%
same,Remaining rate (%) 15 min,[3],96.27%
same,Remaining rate (%) 30 min,[3],91.39%
same,Remaining rate (%) 60 min,[3],95.69%
same,Remaining rate (%) 120 min,[3],94.09%
same,half-life,[3],86.3 h
same,Remaining rate (%) 0 min,"[4]; Mouse plasma, 37°C, 0 min",100.00%
same,Remaining rate (%) 15 min,"[4]; Mouse plasma, 37°C, 15 min",101.30%
same,Remaining rate (%) 30 min,"[4]; Mouse plasma, 37°C, 30 min",98.20%
same,Remaining rate (%) 60 min,"[4]; Mouse plasma, 37°C, 60 min",91.51%
same,Remaining rate (%) 120 min,"[4]; Mouse plasma, 37°C, 120 min",92.09%
same,half-life,"[4]; Mouse plasma, 37°C",27.4 h
same,Remaining rate (%) 0 min,"[5]; Human plasma, 37°C, 0 min",100.00%
same,Remaining rate (%) 15 min,"[5]; Human plasma, 37°C, 15 min",95.61%
same,Remaining rate (%) 30 min,"[5]; Human plasma, 37°C, 30 min",93.15%
same,Remaining rate (%) 60 min,"[5]; Human plasma, 37°C, 60 min",85.08%
same,Remaining rate (%) 120 min,"[5]; Human plasma, 37°C, 120 min",83.37%
same,half-life,"[5]; Human plasma, 37°C",15.5 h
same,IC50,[6],0.16 nM
